Source: ChEMBL document CHEMBL1201862, “PubChem BioAssay data set” (2004)
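96-well plates; 48 h exposure; 5 concentrations. Endpoints by linear interpolation between flanking doses. Not reached: highest tested concentration assigned. GI50: concentration for 50% inhibition of growth.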 Calls of active or inactive are those of the source. Rule as the data show it: active = GI50 up to about 1.1 µM and inactive = higher.

What was measured:
Assay in all cases: NCI-60 cell line screen, 48 h
[1] = system: 786-0
[2] = system: A549
[3] = system: CCRF-CEM
[4] = system: HCT-116
[5] = system: LOX IMVI
[6] = system: MOLT-4
[7] = system: NCI/ADR-RES
[8] = system: OVCAR-4
[9] = system: OVCAR-8
[10] = system: RPMI-8226
[11] = system: SF-539
[12] = system: SK-MEL-28
[13] = system: SK-MEL-2
[14] = system: SK-MEL-5
[15] = system: SK-OV-3
[16] = system: SW-620
[17] = system: T47D
[18] = system: TK-10
[19] = system: UACC-257
[20] = system: UO-31

Measured: GI50

COc1ccc2cc(-c3ccc(OC)c(OC)c3)c(=O)oc2c1
inactive: [1] 52 µM | [2] > 100 µM | [3] > 100 µM | [4] > 100 µM | [5] > 100 µM | [6] > 100 µM | [7] > 100 µM | [8] > 100 µM | [9] > 100 µM | [10] > 100 µM | [11] > 100 µM | [12] > 100 µM | [13] > 100 µM | [14] > 100 µM | [15] > 100 µM | [16] > 100 µM | [17] > 100 µM | [18] > 100 µM | [19] > 100 µM | [20] > 100 µM

C=C1C(=O)O[C@@H]2/C=C(C)/C=C\[C@@H]3O[C@@]3(C)C[C@@H](O)C12 (stereo not given in full)
inactive: [1] 8.69 µM | [2] 47.5 µM | [3] 1.66 µM | [4] 8.13 µM | [5] 7.1 µM | [6] 5.14 µM | [7] 4.51 µM | [8] 16.3 µM | [9] 17.4 µM | [10] 3.74 µM | [11] 7.73 µM | [12] 19.9 µM | [13] 30.8 µM | [14] 14.6 µM | [15] 54 µM | [16] 4.02 µM | [17] 7.19 µM | [18] 3.81 µM | [19] 11.8 µM | [20] 12.4 µM

CCOC(=O)C1(C(=O)OCC)[C@H](c2ccccc2)C2=NO[C@@H]3CCC[C@H]1[C@H]23
inactive: [1] 82.2 µM | [2] 55.6 µM | [3] 35.2 µM | [4] 54.1 µM | [5] > 100 µM | [6] 15.4 µM | [7] 39.4 µM | [8] 37.9 µM | [9] 75.3 µM | [10] 14.6 µM | [11] > 100 µM | [12] > 100 µM | [13] 40.9 µM | [14] 31.3 µM | [15] 30.1 µM | [16] 58.1 µM | [17] 26.5 µM | [18] 63.2 µM | [19] 31.6 µM | [20] 57.4 µM

CN1CCCC(C(=O)OCC(=O)C2(O)CCC3C4CCC5=CC(=O)CCC5(C)C4C(O)CC32C)C1 (stereo not given)
inactive: [1] 4.2 µM | [2] 16.4 µM | [3] 4.9 µM | [4] 8.97 µM | [5] 10.9 µM | [6] 18.7 µM | [7] 20 µM | [8] 13.4 µM | [9] 15 µM | [10] 4.23 µM | [11] 2.12 µM | [12] 17.7 µM | [13] 19.5 µM | [14] 19.1 µM | [15] 16.3 µM | [16] 6.27 µM | [17] 10.3 µM | [18] 12.5 µM | [19] 18.3 µM | [20] 8.11 µM

Sc1nn2c(Cc3ccccc3)nnc2s1
inactive: [1] > 100 µM | [2] > 100 µM | [3] > 100 µM | [4] > 100 µM | [5] > 100 µM | [6] > 100 µM | [7] > 100 µM | [8] > 100 µM | [9] > 100 µM | [10] > 100 µM | [11] > 100 µM | [12] > 100 µM | [13] > 100 µM | [14] > 100 µM | [15] > 100 µM | [16] > 100 µM | [17] > 100 µM | [18] > 100 µM | [19] > 100 µM | [20] > 100 µM
